Experimental data as given in patent publication US5631401A, “Inhibitors of protein farnesyltransferase and squalene synthase” (Abbott Laboratories, priority 1995, dated 1997).

Key:
[1] = target: T1, Rat liver microsomal squalene synthase (Rattus norvegicus, UniProt Q02769); assay: In vitro inhibition of squalene synthase (rat liver microsomes, 3H-farnesyl diphosphate); assay type: biochemical; details: for inhibition at 1 µM: compared to controls with no test compound; for inhibition at 10 µM: 10 μM (footnote *), read-out: % Inhibition at 10 μM (squalene synthase, values marked *)
T1 construct: Rat liver microsomes, the source of enzyme, were prepared; from tissue; host or cells: rat liver microsomes
T1 sequence (Q02769 1-416): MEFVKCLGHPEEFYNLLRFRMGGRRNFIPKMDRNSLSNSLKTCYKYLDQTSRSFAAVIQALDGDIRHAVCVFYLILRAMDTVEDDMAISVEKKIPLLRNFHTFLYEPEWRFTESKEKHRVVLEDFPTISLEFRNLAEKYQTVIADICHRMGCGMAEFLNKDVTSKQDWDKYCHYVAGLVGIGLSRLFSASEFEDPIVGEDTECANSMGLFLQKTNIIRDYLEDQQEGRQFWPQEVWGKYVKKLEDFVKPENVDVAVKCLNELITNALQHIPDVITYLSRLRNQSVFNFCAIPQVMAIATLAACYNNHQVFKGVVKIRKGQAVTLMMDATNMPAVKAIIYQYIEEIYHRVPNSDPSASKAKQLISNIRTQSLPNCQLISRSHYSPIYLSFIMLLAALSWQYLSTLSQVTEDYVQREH
Procedure: In vitro inhibition of squalene synthase may be measured by the following procedure.
Rat liver microsomal squalene synthase activity was measured using radioactive farnesyl diphosphate as a substrate and quantitating squalene synthesis by counting the radioactive squalene formed.
Rat liver microsomes, the source of enzyme, were prepared according to the method of Gillies, P. J., et al., Exp. Molec. Pathol. 44: 329-339 (1986), a modification of the procedure of Erickson, S. K., and Cooper, A. D., Metabolism, 29: 991-996 (1980). Approximately 30 μg of microsomal protein was incubated for 10 minutes at 37° C. with 11 μM of ^3 H-farnesyl diphosphate, 49 mCi/mmol, and test compound in the presence of squalene (2 μL), Mg^++, KF, reduced B-nicotinamide adenine dinucleotide phosphate, dithiothreitol, and K2 PO4, pH 7.35, in a total volume of 200 μL. Oxygen was excluded from the closed incubation tube by degassing with nitrogen. The reaction was terminated by the addition of ethanolic KOH and after degassing with N2, the microsomal membranes were solubilized by heating at 60° C. for 30 minutes. The squalene was extracted into hexane, and the squalene was separated from all other radioactive molecules by passage over an activated alumina column. The solution was collected in scintillation vials, evaporated to dryness, liquid scintillation fluid was added, and the radioactivity was determined in a liquid scintillation counter. […]

[2] = target: T2, Rat brain protein farnesyltransferase (Rattus norvegicus, UniProt Q02293+Q04631); assay: In vitro inhibition of protein farnesyltransferase (biotin-lamin substrate, scintillation proximity assay); assay type: biochemical; details: for inhibition at 10 µM: compared to uninhibited control; for inhibition at 1 µM: 1 μM (footnote *), read-out: % Inhibition at 1 μM (protein farnesyltransferase, values marked *)
T2 construct: The enzyme was purified according to Reiss, Y., et al., Cell, 62: 81-88 (1990), utilizing steps one through three; from tissue; host or cells: rat brain
Outline: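 Protein farnesyltransferase isolated from rat brain was purified following steps one through three of the Reiss et al. method, giving a specific activity of about 10 nmol substrate farnesylated/mg enzyme/hour. Activity was measured with a commercial Amersham scintillation proximity assay kit, using biotin-lamin as the acceptor substrate and radioactive farnesyl diphosphate as the donor.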

SMILES: CCCCN(Cc1ccc(Oc2ccccc2)cc1)C(=O)[C@H]1[C@H](C(=O)O)[C@H](C(=O)N(CCCC)Cc2ccc(Oc3ccccc3)cc2)[C@H]1C(=O)O [Example 27, (1α,2β,3β,4α)-1,3-Di(N-butyl-N-(4-phenoxybenzyl)aminocarbonyl)cyclobutane-2,4-dicarboxylic acid]
- inhibition at 1 µM [1]: 35%
- inhibition at 10 µM [2]: 69%

SMILES: O=C(O)[C@H]1[C@H](C(=O)N(Cc2ccc(Oc3ccccc3)cc2)C2CC2)[C@H](C(=O)O)[C@H]1C(=O)N(Cc1ccc(Oc2ccccc2)cc1)C1CC1 [Example 31, (1α,2β,3β,4α)-1,3-Di[N-cyclopropyl-N-(4-phenoxybenzyl)aminocarbonyl]cyclobutane-2,4-dicarboxylic acid]
- inhibition at 1 µM [1]: 23%
- inhibition at 10 µM [2]: 74%

SMILES: O=C(O)[C@H]1[C@H](C(=O)N(Cc2ccc(Oc3ccccc3)cc2)C2CCCC2)[C@H](C(=O)O)[C@H]1C(=O)N(Cc1ccc(Oc2ccccc2)cc1)C1CCCC1 [Example 97, (1α,2β,3β,4α)-1,3-Di[N-cyclopentyl-N-(4-phenoxybenzyl)aminocarbonyl]cyclobutane-2,4-dicarboxylic acid]
- inhibition at 1 µM [1]: 49%
- inhibition at 10 µM [2]: 32%

SMILES: CN(Cc1ccc(OCc2ccccc2)cc1)C(=O)[C@H]1[C@H](C(=O)O)[C@H](C(=O)N(C)Cc2ccc(OCc3ccccc3)cc2)[C@H]1C(=O)O [Example 15, (1α,2β,3β,4α)-1,3-Di[N-methyl-N-(4-benzyloxybenzyl)aminocarbonyl]cyclobutane-2,4-dicarboxylic acid]
- inhibition at 10 µM [1]: 26%
- inhibition at 10 µM [2]: 45%

SMILES: CN(Cc1ccc(Oc2ccc(F)cc2)cc1)C(=O)[C@H]1[C@H](C(=O)O)[C@H](C(=O)N(C)Cc2ccc(Oc3ccc(F)cc3)cc2)[C@H]1C(=O)O [Example 21, (1α,2β,3β,4α)-1,3-Di(N-methyl-N-(4-(4-fluorophenoxy)benzyl)aminocarbonyl)cyclobutane-2,4-dicarboxylic acid]
- inhibition at 10 µM [1]: 33%
- inhibition at 10 µM [2]: 27%

SMILES: CC(C)N(Cc1ccc(Oc2ccccc2)cc1)C(=O)[C@H]1[C@H](C(=O)O)[C@H](C(=O)N(Cc2ccc(Oc3ccccc3)cc2)C(C)C)[C@H]1C(=O)O [Example 24]
- inhibition at 10 µM [1]: 85%
- inhibition at 10 µM [2]: 31%

SMILES: CCCN(Cc1ccc(Oc2ccccc2)cc1)C(=O)[C@H]1[C@H](C(=O)O)[C@H](C(=O)N(Cc2ccccc2)Cc2ccc(Oc3ccccc3)cc2)[C@H]1C(=O)O (relative stereo) [Example 40, (1α,2β,3β,4α)-1-[N-Propyl-N-(4-phenoxybenzyl)aminocarbonyl]-3-[N-benzyl-N-(4-phenoxybenzyl)aminocarbonyl]cyclobutane-2,4-dicarboxylic acid]
- inhibition at 1 µM [1]: 49%
- inhibition at 1 µM [2]: 94%

SMILES: O=C(O)[C@H]1[C@H](C(=O)N(CCCc2ccccc2)Cc2ccc(Oc3ccccc3)cc2)[C@H](C(=O)O)[C@H]1C(=O)N(CCCc1ccccc1)Cc1ccc(Oc2ccccc2)cc1 [Example 79, (1α,2β,3β,4α)-1,3-Di [N-(4-phenoxybenzyl)-N-(3-phenyl-1-propyl)aminocarbonyl]cyclobutane-2,4-dicarboxylic acid]
- inhibition at 1 µM [1]: 54%
- inhibition at 10 µM [2]: 43%

SMILES: COc1ccc(CCN(Cc2ccc(Oc3ccccc3)cc2)C(=O)[C@H]2[C@H](C(=O)O)[C@H](C(=O)N(CCc3ccc(OC)c(OC)c3)Cc3ccc(Oc4ccccc4)cc3)[C@H]2C(=O)O)cc1OC [Example 77, (1α,2β,3β,4α)-1,3-Di [N-(4-phenoxybenzyl)-N-(3,4-dimethoxyphenethyl)aminocarbonyl]cyclobutane-2,4-dicarboxylic acid]
- inhibition at 1 µM [1]: 23%
- inhibition at 10 µM [2]: 48%

SMILES: CCCN(Cc1ccc(Oc2ccccc2)s1)C(=O)C1C(C(=O)O)C(C(=O)N(CCC)Cc2ccc(Oc3ccccc3)s2)C1C(=O)O (stereo not drawn) [Example 53, (1α,2β,3β,4α)-1,3-Di[N-propyl-N-(5-phenoxythien-2-ylmethyl)aminocarbonyl]cyclobutane-2,4-dicarboxylic acid]
- inhibition at 1 µM [1]: 23%
- inhibition at 10 µM [2]: 69%

SMILES: COCCN(Cc1ccc(Oc2ccccc2)cc1)C(=O)C1C(C(=O)O)C(C(=O)N(CCOC)Cc2ccc(Oc3ccccc3)cc2)C1C(=O)O (stereo not drawn) [Example 68, (1α,2β,3β,4α)-1,3-Di[N-(2-methoxyethyl)-N-(4-phenoxybenzyl)aminocarbonyl]cyclobutane-2,4-dicarboxylic acid]
- inhibition at 1 µM [1]: 52%
- inhibition at 10 µM [2]: 49%

SMILES: O=C(O)[C@H]1[C@H](C(=O)N(CCCCc2ccccc2)Cc2ccc(Oc3ccccc3)cc2)[C@H](C(=O)O)[C@H]1C(=O)N(CCCCc1ccccc1)Cc1ccc(Oc2ccccc2)cc1 [Example 80, (1α,2β,3β,4α)-1,3-Di [N-(4-phenoxybenzyl)-N-(4-phenyl-1-butyl)aminocarbonyl]cyclobutane-2,4-dicarboxylic acid]
- inhibition at 1 µM [1]: 42%
- inhibition at 10 µM [2]: 51%

SMILES: CCCN(Cc1ccc(Nc2ccccc2)cc1)C(=O)[C@H]1[C@H](C(=O)O)[C@H](C(=O)N(CCC)Cc2ccc(Nc3ccccc3)cc2)[C@H]1C(=O)O [Example 63]
- inhibition at 1 µM [1]: 44%
- inhibition at 10 µM [2]: 68%

SMILES: CCCN(Cc1ccc(Sc2ccccc2)cc1)C(=O)C1C(C(=O)O)C(C(=O)N(CCC)Cc2ccc(Sc3ccccc3)cc2)C1C(=O)O (centres unmarked) [Example 64]
- inhibition at 1 µM [1]: 33%
- inhibition at 10 µM [2]: 64%

SMILES: CCCN(Cc1ccc(Oc2cccc(C)c2)cc1)C(=O)C1C(C(=O)O)C(C(=O)N(CCC)Cc2ccc(Oc3cccc(C)c3)cc2)C1C(=O)O (stereo not drawn) [Example 57, (1α,2β,3β,4α)-1,3-Di{N-propyl-N-[4-(3-methylphenoxy)benzyl]aminocarbonyl}cyclobutane-2,4-dicarboxylic acid]
- inhibition at 1 µM [1]: 37%
- inhibition at 1 µM [2]: 26%

SMILES: O=C(O)CCN(Cc1ccc(Oc2ccccc2)cc1)C(=O)C1C(C(=O)O)C(C(=O)N(CCC(=O)O)Cc2ccc(Oc3ccccc3)cc2)C1C(=O)O (stereo not drawn) [Example 44, (1α,2β,3β,4α)-1,3-Di[N-(2-carboxyethyl)-N-(4-phenoxybenzyl)aminocarbonyl]cyclobutane-2,4-dicarboxylic acid]
- inhibition at 1 µM [1]: 30%
- inhibition at 10 µM [2]: 81%

SMILES: CCCCCN(Cc1ccc(Oc2ccccc2)cc1)C(=O)[C@H]1[C@H](C(=O)O)[C@H](C(=O)N(CCCCC)Cc2ccc(Oc3ccccc3)cc2)[C@H]1C(=O)O [Example 29, (1α,2β,3β,4α)-1,3-Di(N-pentyl-N-(4-phenoxybenzyl)aminocarbonyl)cyclobutane-2,4-dicarboxylic acid]
- inhibition at 10 µM [1]: 50%
- inhibition at 10 µM [2]: 38%

SMILES: O=C(O)[C@H]1[C@H](C(=O)N(Cc2ccc(F)cc2)Cc2ccc(Oc3ccccc3)cc2)[C@H](C(=O)O)[C@H]1C(=O)N(Cc1ccc(F)cc1)Cc1ccc(Oc2ccccc2)cc1 [Example 94, (1α,2β,3β,4α)-1,3-Di[N-(4-fluorobenzyl)-N-(4-phenoxybenzyl)aminocarbonyl]cyclobutane-2,4-dicarboxylic acid]
- inhibition at 1 µM [1]: 20%
- inhibition at 10 µM [2]: 99%

SMILES: CCCN(Cc1ccc(Oc2ccc3ccccc3c2)cc1)C(=O)C1C(C(=O)O)C(C(=O)N(CCC)Cc2ccc(Oc3ccc4ccccc4c3)cc2)C1C(=O)O (stereo not drawn) [Example 58, (1α,2β,3β,4α)-1,3-Di{N-propyl-N-[4-(naphth-2-yloxy)benzyl]aminocarbonyl}cyclobutane-2,4-dicarboxylic acid]
- inhibition at 1 µM [1]: 50%
- inhibition at 1 µM [2]: 31%
